The numbers were not newly measured in publication PMC10218941, “Design, Synthesis, Antiproliferative Actions, and DFT Studies of New Bis–Pyrazoline Derivatives as Dual EGFR/BRAF^V600E Inhibitors” (International Journal of Molecular Sciences, 2023), which cites them from elsewhere.

The term IC50 denotes the concentration at which inhibition is half-maximal.

In one data set the target is T1, EGFR (Homo sapiens, UniProt P00533).
T1 construct: 645–1186); His6 (N); made in house; host or cells: Sf-9 insect cells (baculovirus; pBlueBacHis2B / pFASTBacHTc
Also on record: method as in PMID 35424523. The following applies: cited from earlier work.

For another data set, the system named is BRAF^V600E. Also on record: method as in PMID 35424523. To be noted: cited from earlier work.

Structures are written as SMILES. Several values for one entry are separate records, joined by “and”; a condition that tells them apart may be missing. Equal entries are not always repeated.

T1 sequence (P00533 669-1210): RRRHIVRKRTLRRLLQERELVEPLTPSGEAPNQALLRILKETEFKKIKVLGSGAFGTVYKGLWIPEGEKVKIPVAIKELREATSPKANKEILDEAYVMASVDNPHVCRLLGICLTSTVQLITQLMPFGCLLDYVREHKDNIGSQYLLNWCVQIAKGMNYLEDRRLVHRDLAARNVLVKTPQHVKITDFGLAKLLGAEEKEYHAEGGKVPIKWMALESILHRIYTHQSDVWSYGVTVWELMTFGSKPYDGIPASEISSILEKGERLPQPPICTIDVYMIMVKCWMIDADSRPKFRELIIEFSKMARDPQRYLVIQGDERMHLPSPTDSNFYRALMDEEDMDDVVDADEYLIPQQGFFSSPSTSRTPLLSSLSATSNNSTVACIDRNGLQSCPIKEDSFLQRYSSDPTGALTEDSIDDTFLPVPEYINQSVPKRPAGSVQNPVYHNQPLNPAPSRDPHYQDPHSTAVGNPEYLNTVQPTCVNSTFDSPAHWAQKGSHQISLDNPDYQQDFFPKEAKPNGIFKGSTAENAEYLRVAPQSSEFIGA

Consider `Cc1c(NC2=NC(=O)CS2)c(=O)n(-c2ccccc2)n1C` [I], for which the IC50 on EGFR is 22 nM and 20 nM; in the data set on BRAF^V600E, 2030 nM.
